In patent US10119972B2, “Reactive labelling compounds and uses thereof” (Academia Sinica, priority 2014, dated 2018):
Entries after “also recorded” stand apart in the source; their conditions may differ.

Key:
[1] = SPAAC reaction kinetics of 101 with N-azidoacetylmannosamine monitored by 1H-NMR; assay type: physicochemical; details: 20 mM, CD3OD-D2O (5:1, v/v), 25° C.
Method: To evaluate the feasibility of compound 101 as a reagent for the SPAAC-based fluorescence labeling, its reaction scope and kinetics using benzyl azide as a model substrate was first studied. The SPAAC reaction of 101 with benzyl azide in acetonitrile was completed in 2 h at room temperature to give triazole 111 in 95% yield (Scheme 100). The reactivity of 101 with benzyl azide (1:1) in CD3CN was determined by integration of multiple chemical shifts in the ^1H-NMR spectrum to yield a second-order rate constant of 0.012 M^−1s^−1 at 25° C. […]
(§1) Part B: Compound 101 and N-azidoacetylmannosamine were predissolved in CD3OD/D2O (5:1, v/v), and then mixed at equimolar concentration of 20 mM. The reaction was monitored by ^1H-NMR analysis over a period of 1 h. The concentration of each component was determined, based on the concentration of initial compound 101, by integration at multiple chemical shifts in the ^1H-NMR spectrum. […] (M^−1) vs. time (sec), a second order rate constant in unit of M^−1s^−1 was determined using linear regression analysis. […]
FIG. 18 describes a Plot of 1/[101] vs. time for the reaction of compound 101 and N-azidoacetylmannosamine in a solution of CD3OD-D2O (5:1, v/v) as monitored by ^1H-NMR.

[2] = Absorption and fluorescence spectroscopy under simulated physiological conditions; assay type: physicochemical; details: PBS buffer containing 10% DMSO, pH 7.4
Method: Formation of triazoles 111 and 112 were accompanied by a significant increase in fluorescence intensity with a large Stokes shift into a standard range for coumarin emission (FIG. 16a).
FIG. 16 describes (a) Absorption and Fluorescence emission spectra (λex=330 nm) of 101 (black), 111 (blue) and 112 (red) (45 μM, PBS buffer containing 10% DMSO, pH 7.4). (b) Time course of normalized fluorescence intensity at 435 nm (λex=330 nm) for the ligation reaction of 101 (30 μM) with N-azidoacetylmannosamine (30 μM) in PBS buffer containing 10% DMSO.

[3] = Stability in presence of 3-mercaptopropionic acid by 1H-NMR; assay type: physicochemical; details: 25 mM in CDCl3 with 3-mercaptopropionic acid (32 mM), 25° C., 24 h
Method: A potential problematic side reaction of cyclooctynes is the addition with proteinic or endogenous thiols to the corresponding vinyl sulfides. To test whether potential non-specific stainings of 101 and the corresponding triazole 111 may occur due to additions of the SH groups to the triple bond or double bond by proteinic or endogenous thiols, the experiment was performed by incubation of 101 and 111 with 3-mercaptopropionic acid in CDCl3 (FIGS. 25 and 26).
A solution of compound 101 and compound 111 (25 mM in CDCl3) was incubated with a solution of 3-mercaptopropionic acid (32 mM in CDCl3) at room temperature (25° C.).
FIG. 25 show ^1H-NMR spectrum in CDCl3 of compound 101 and 3-mercaptopropionic acid alone, and ^1H-NMR spectrum of compound 101 was treated with 3-mercaptopropionic acid at 25° C. for 0 h, 2 h and 24 h.

[4] = test system: living cells; assay: Cytotoxicity of probe in living cells; assay type: cell-based
[5] = SPAAC reaction kinetics of 101 with benzyl azide monitored by 1H-NMR; assay type: physicochemical; details: 101 with benzyl azide (1:1), 20 mM, CD3CN, 25° C.
Method: To evaluate the feasibility of compound 101 as a reagent for the SPAAC-based fluorescence labeling, its reaction scope and kinetics using benzyl azide as a model substrate was first studied. The SPAAC reaction of 101 with benzyl azide in acetonitrile was completed in 2 h at room temperature to give triazole 111 in 95% yield (Scheme 100). The reactivity of 101 with benzyl azide (1:1) in CD3CN was determined by integration of multiple chemical shifts in the ^1H-NMR spectrum to yield a second-order rate constant of 0.012 M^−1s^−1 at 25° C. We also observed the cycloaddition reaction between 101 and N-azidoacetylmannosamine (ManNAz), proceeding similarly to give triazole 112 with a second-order rate constant of 0.010 M^−1s^−1 at 25° C. in a solution of CD3OD-D2O (5:1, v/v) (FIGS. 17 and 18).
as §1, with “A:” for “B:”, “benzyl azide” for “N-azidoacetylmannosamine”, “CD3CN,” for “CD3OD/D2O (5:1, v/v),”
FIG. 17 describes a Plot of 1/[101] vs. time for the reaction of compound 101 and benzyl azide in CD3CN as monitored by ^1H-NMR.

Absorption (λmax, nm) [2]: 336 nm
Stokes shift [2]: 5070 cm⁻¹
Emission (λmax, nm) ([2]; excitation at 330 nm): 405 nm
ε (M^−1cm^−1), extinction coefficient ([2]; measured at 340 nm): 7800 M⁻¹ cm⁻¹
Φf, fluorescence quantum yield ([2]; quinine sulfate (Φf = 0.54 ± 0.03) as standard): 0.011
thiol-yne or thiol-ene addition / stability in the presence of thiols [3]: inactive; also recorded: high stability
SMILES: O=c1ccc2cc3c(cc2o1)C#CCCCC3 [Compound 101, 6,7,8,9-Tetrahydro-10,11-didehydro-cycloocta[g]chromen-2(2H)-one]
second-order rate constant [1]: 0.010 M⁻¹ s⁻¹
cytotoxicity [4]: low cytotoxicity; also recorded: nontoxic
second-order rate constant [5]: 0.012 M⁻¹ s⁻¹
